The test system of data set [1] is M. tuberculosis H37Rv. The class given is cell-based, Mycobacterium tuberculosis.
The target of data set [2] is enoyl acyl-carrier protein reductase (InhA). To be noted: InhA enzymatic activity; cited from earlier work.
For data set [3] the following is noted: Middlebrook 7H9 media supplemented with albumin, dextrose, and saline.
Data set [4] relates to M. tuberculosis H37Rv. The settings on record: cited from earlier work.
In data set [5] the test system is M. tuberculosis. Description: metabolomics: intramycobacterial accumulation and metabolism. The class given is cell-based, Mycobacterium tuberculosis. To be noted: dose-dependent.

Converted amounts (≈) assume the structure as drawn. Where two headings read alike, the source gives them in different places.

As usually defined, the MIC is the lowest concentration found to suppress growth. For orientation: IC50 means the point on the concentration scale where inhibition reaches its midpoint. As for `CCOC(=O)CSc1nc(N)c2c3c(sc2n1)CC(C(C)(C)C)CC3` (stereo not drawn) [CD117], the MIC in data set [1] is 0.39 µg/mL (≈ 1.03 µM); in data set [4] (M. tuberculosis H37Rv lab strain, previously reported), 0.39 µg/mL; in data set [4] (M. tuberculosis H37Rv, 0.39 μg/mL expressed in μM) it was 1.0 µM. Further, the IC50 in data set [2] was 34 ± 6 µM. In data set [3], the “stability in growth media” value is given as “stable”. Besides, the “permeation of the M. tuberculosis cell wall” value in data set [5] is given as “permeate the M. tuberculosis cell wall”.

The values above are taken from PMC4527344 (Tetrahedron letters, 2015).
